In patent US20230183237A1, “COMPETITIVE AND NONCOMPETITIVE INHIBITORS OF THE MUSCARINIC ACETYLCHOLINE RECEPTOR M5” (Vanderbilt University, priority 2020, published 2023) one finds IC50 data, which are given here for 26 compounds.

The target in one assay is T1, hM5 (Homo sapiens, UniProt P08912).
T1 construct: expressed in transfected cells
T1 sequence (P08912 1-532): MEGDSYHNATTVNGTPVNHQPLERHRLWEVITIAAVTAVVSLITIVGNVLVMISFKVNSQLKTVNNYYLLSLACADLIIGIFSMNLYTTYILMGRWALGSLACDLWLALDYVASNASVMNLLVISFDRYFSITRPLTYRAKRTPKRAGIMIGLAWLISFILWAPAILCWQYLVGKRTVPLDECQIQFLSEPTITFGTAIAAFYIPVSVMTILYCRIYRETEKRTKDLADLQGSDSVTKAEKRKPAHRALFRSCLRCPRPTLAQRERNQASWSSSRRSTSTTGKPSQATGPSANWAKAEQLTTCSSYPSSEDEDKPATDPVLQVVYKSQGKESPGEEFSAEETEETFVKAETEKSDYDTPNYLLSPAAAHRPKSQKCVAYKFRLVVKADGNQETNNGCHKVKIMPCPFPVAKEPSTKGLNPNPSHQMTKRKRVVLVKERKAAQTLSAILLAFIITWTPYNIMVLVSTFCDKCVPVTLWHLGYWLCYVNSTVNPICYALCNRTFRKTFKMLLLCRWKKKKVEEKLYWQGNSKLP
Description: Calcium mobilization concentration-response (IC50 vs EC80 acetylcholine), CHO hM5. The following applies: CELL LINE hM5; calcium mobilization, EC80 acetylcholine addition; read-out: IC50. It is filed as cell-based. The protocol: Initial, single point (10 μM) compound characterization was performed in stable Chinese Hamster Ovary (CHO) cell lines constitutively expressing human M5 receptors. These were plated at 15,000 cells per 20 μL per well in Greiner 384-well black-walled, TC-treated, clear-bottomed plates (Fisher) in Ham's F12 medium supplemented with 10% FBS and 20 mM HEPES. Cells were incubated overnight at 37° C. under 5% CO2. The following day, medium was exchanged with assay buffer (Hank's Balanced Salt Solution supplemented with 20 mM HEPES and 2.5 mM Probenecid, pH 7.4) leaving 20 μL of assay buffer in each well. […] The cells were then incubated 50 minutes at 37° C. under 5% CO2. The assay buffer plus dye was then exchanged with fresh assay buffer leaving a volume of 20 μL in each well. Test compounds were diluted into assay buffer to a 2X (20 μM) concentration in 0.2% dimethylsulfoxide (DMSO) in columns 3-22 with matching DMSO concentration in columns 1, 2, 23, and […]; compounds were added to the assay for a final concentration of 10 μM and a final DMSO concentration of 0.1%.
Either an FDSS (Hamamatsu) or Panoptic (WaveFront Biosciences) kinetic imaging plate reader was used for assay execution and measurement of calcium flux. After establishing baseline fluorescence, test compounds (20 μL) were added to the cells using the reader's integrated pipettor and allowed to equilibrate for 140 seconds before addition of the […] concentration of acetylcholine (10 μL) along with vehicle in selected DMSO-only wells in the outer two columns . […] The raw fluorescence data from each well was normalized to the corresponding initial fluorescence reading (static ratio). The maximum fluorescence value following each addition was determined and the minimum value within that same timeframe was subtracted for each well then normalized to the average of the ECffiax maximum-minimum response, providing a % AChmax value for each addition for each well. The single point values represent mean values determined within the ECsu addition timeframe obtained from at least three independent determinations performed in triplicate or greater (error bars represent +/−SEM) unless otherwise specified.
CHO cells stably expressing hM1, hM2/Gqi5, hM3, hM4/Gqi5, hM5, rM1/Gqi5, rM3, rM4/Gqi5, or rM5 were plated in the manner described above. […] FDSS protocols were carried out as described above; the static ratio was calculated and the minimum response subtracted from the maximum response within the timeframe of each addition. This max-min response was then normalized to the maximum acetylcholine response. Calculation of IC50 was performed using the percent maximum acetylcholine response for the EC80 addition through the Vortex and Studies modules of the Dotmatics data management software. Results are stored in the Dotrnatics database and an audit trail of any changes to their analysis is generated. Data shown represent mean values obtained from at least three independent determinations performed in triplicate or greater (error bars represent±SEM) unless otherwise specified.
For orientation: A change in cytosolic calcium serves as a functional read-out for many receptors and channels.
Take `Cc1cc2ncnn2cc1[C@@H]1CCN(S(=O)(=O)c2cn(C)nc2C)C[C@H]1F` (racemic) [Compound 172, (rac)-6-(trans-1-((1,3-dimethyl-1H-pyrazol-4-yl)sulfonyl)-3-fluoropiperidin-4-yl)-7-methyl-[1,2,4]triazolo[1,5-a]pyridine]: the IC50 (in general, the point on the concentration scale where inhibition reaches its midpoint) amounted to 275 nM.
With `Cc1cc2ncnn2cc1[C@@H]1CCN(S(=O)(=O)c2cnn(C)c2C)C[C@H]1F` (racemic) [Compound 174, (rac)-6-(trans-1-((1,5-Dimethyl-1H-pyrazol-4-yl)sulfonyl)-3-fluoropiperidin-4-yl)-7-methyl-[1,2,4]triazolo[1,5-a]pyridine], the IC50 was 20 nM.
Same read-out and setting: the figure for `Cc1cc2ncnn2cc1[C@@H]1CCN(S(=O)(=O)c2cnn(C)c2C)C[C@H]1O` (racemic) [Compound 197, (rac)-trans-1-((1,5-dimethyl-1H-pyrazol-4-yl)sulfonyl)-4-(7-methyl-[1,2,4]triazolo[1,5-a]pyridin-6-yl)piperidin-3-ol] is 594 nM.
On the same count and under the same terms, the figure for `Cc1cc2ncnn2cc1[C@@H]1CCN(S(=O)(=O)c2cnn3c2CCCC3)C[C@H]1O` (racemic) [Compound 270, (rac)-trans-4-(7-methyl-[1,2,4]triazolo[1,5-a]pyridin-6-yl)-1-((4,5,6,7-tetrahydropyrazolo[1,5-a]pyridin-3-yl)sulfonyl)piperidin-3-ol] is 105 nM; for `Cc1cc2ncnn2cc1[C@@H]1CCN(S(=O)(=O)c2cnn(C)c2Cl)C[C@H]1O` (racemic) [Compound 282, (rac)-trans-1-((5-Chloro-1-methyl-1H-pyrazol-4-yl)sulfonyl-4-(7-methyl-[1,2,4]triazolo[1,5-a]pyridin-6-yl)piperidin-3-ol] it is 103 nM.
The same measure, in the same setting: under `O=S(=O)(c1ccc2ncsc2c1)N1CCC(c2ccncc2)CC1` [Compound 1, 6-((4-(pyridin-4-yl)piperidin-1-yl)sulfonyl)benzo[d]thiazole] stands above 10000 nM.
As for `O=S(=O)(c1ccc2c(c1)CCO2)N1CCC(c2ccncc2)CC1` [Compound 2, 4-(1-((2,3-dihydrobenzofuran-5-yl)sulfonyl)piperidin-4-yl)pyridine], the IC50 is above 10000 nM.
Take `O=S(=O)(c1ccc2c(c1)CCO2)N1CCC(c2nc3ccccc3[nH]2)CC1` [Compound 3, 2-(1-((2,3-dihydrobenzofuran-5-yl)sulfonyl)piperidin-4-yl)-1H-benzo[d]imidazole]: the IC50 is above 10000 nM.
The same measure, in the same setting: the figure for `O=S(=O)(c1ccc2c(c1)CCO2)N1CCC(c2cc(-c3ccco3)n[nH]2)CC1` [Compound 4, 1-((2,3-dihydrobenzofuran-5-yl)sulfonyl)-4-(3-(furan-2-yl)-1H-pyrazol-5-yl)piperidine] is above 10000 nM.
For the compound `O=S(=O)(c1ccc2c(c1)CCO2)N1CCC(c2nc3cc(F)ccc3[nH]2)CC1` [Compound 5, 2-(1-((2,3-dihydrobenzofuran-5-yl)sulfonyl)piperidin-4-yl)-5-fluoro-in-benzo[d]imidazole], the IC50 was above 10000 nM.
Regarding `O=S(=O)(c1ccc2ncsc2c1)N1CCC(c2cc(-c3ccco3)n[nH]2)CC1` [Compound 6, 6-((4-(3-(furan-2-yl)-1H-pyrazol-5-yl)piperidin-1-yl)sulfonyl)benzo[d]thiazole], the IC50 was above 10000 nM.
On the same count and under the same terms, under `Cn1cnc2cc(C3CCN(S(=O)(=O)c4ccc5c(c4)CCO5)CC3)ccc21` [Compound 7, 5-(1-((2,3-dihydrobenzofuran-5-yl)sulfonyl)piperidin-4-yl)-1-methyl-1H-benzo[d]imidazole] stands above 10000 nM; under `Cn1cnc2cc(C3CCN(S(=O)(=O)c4ccc5ncsc5c4)CC3)ccc21` [Compound 8, 6-((4-(1-methyl-1-benzo[d]imidazol-5-yl)piperidin-1-yl)sulfonyl)benzo[d]thiazole], above 10000 nM; under `O=S(=O)(c1ccc2ncsc2c1)N1CCC(c2cn3ccccc3n2)CC1` [Compound 9, 6-((4-(imidazo[1,2-a]pyridin-2-yl)piperidin-1-yl)sulfonyl)benzo[d]thiazole], above 10000 nM.
Still for that read-out and setting: the figure for `O=S(=O)(c1ccc2c(c1)CCO2)N1CCC(c2cn3ccccc3n2)CC1` [Compound 10, 2-(1-((2,3-dihydrobenzofuran-5-yl)sulfonyl)piperidin-4-yl)imidazo[1,2-a]pyridine] is 2300 nM; for `O=S(=O)(c1ccc2ncsc2c1)N1CCC(c2nc3cccnc3s2)CC1` [Compound 11, 2-(1-(benzo[d]thiazol-6-ylsulfonyl)piperidin-4-yl)thiazolo[5,4-b]pyridine] it is above 10000 nM.
On the same count and under the same terms, under `O=S(=O)(c1ccc2c(c1)CCO2)N1CCC(c2nc3cccnc3s2)CC1` [Compound 12, 2-(1-((2,3-dihydrobenzofuran-5-yl)sulfonyl)piperidin-4-yl)thiazolo[5,4-b]pyridine] stands above 10000 nM; under `O=S(=O)(c1ccc2c(c1)CCO2)N1CCC(c2cc3ccncc3s2)CC1` [Compound 13, 2-(1-((2,3-dihydrobenzofuran-5-yl)sulfonyl)piperidin-4-yl)thieno[2,3-c]pyridine], above 10000 nM.
For `O=S(=O)(c1ccc2c(c1)CCO2)N1CCC(c2cc3cnccc3s2)CC1` [Compound 14, 2-(1-((2,3-dihydrobenzofuran-5-yl)sulfonyl)piperidin-4-yl)thieno[3,2-c]pyridine], the IC50 was above 10000 nM.

Still in this assay, the particulars now being: CELL LINE hM5; vs EC80 acetylcholine; read-out: IC50.
Consider `CO[C@@H]1CN(S(=O)(=O)c2cnn(C)c2C)CC[C@H]1c1cn2ncnc2cc1C` (racemic) [Compound 411, (rac)-6-(trans-1-((1,5-dimethyl-1H-pyrazol-4-yl)sulfonyl)-3-methoxypiperidin-4-yl)-7-methyl-[1,2,4]triazolo[1,5-a]pyridine], for which the IC50 stood at 288 nM.
As for `CO[C@@H]1CN(S(=O)(=O)c2cnn(C)c2Cl)CC[C@H]1c1cn2ncnc2cc1C` (racemic) [Compound 413, (rac)-6-(trans-1-((5-chloro-1-methyl-1H-pyrazol-4-yl)sulfonyl)-3-methoxypiperidin-4-yl)-7-methyl-[1,2,4]triazolo[1,5-a]pyridine], the IC50 was 268 nM.
Still for that read-out and setting: the figure for `CO[C@@H]1CN(S(=O)(=O)c2cnn3c2OCCC3)CC[C@H]1c1cn2ncnc2cc1C` (racemic) [Compound 414, (rac)-3-((trans-3-methoxy-4-(7-methyl-[1,2,4]triazolo[1,5-a]pyridin-6-yl)piperidin-1-yl)sulfonyl)-6,7-dihydro-5H-pyrazolo[5,1-b][1,3]oxazine] is 1460 nM.
As to `CO[C@@H]1CN(S(=O)(=O)c2cnn(C)c2Cl)CC[C@H]1c1cn2ncnc2cc1C` (single isomer, unassigned) [Compound 459], the IC50 came out at 268 nM.
For `CO[C@H]1CN(S(=O)(=O)c2cnn(C)c2Cl)CC[C@@H]1c1cn2ncnc2cc1C` (single isomer, unassigned) [Compound 460], the IC50 was above 10000 nM.
Still for that read-out and setting: under `COc1c(S(=O)(=O)N2CCC(c3cn4ncnc4cc3Cl)CC2)c(I)nn1C` (single isomer, unassigned) [Compound 625, 7-Chloro-6-(1-((3-iodo-5-methoxy-1-methyl-1H-pyrazol-4-yl)sulfonyl)piperidin4-yl)-[1,2,4]triazolo[1,5-a]pyridine] stands 27 nM; under `COc1nn(C)c(I)c1S(=O)(=O)N1CCC(c2cn3ncnc3cc2Cl)CC1` (single isomer, unassigned) [Compound 626, 7-chloro-6-(1-((5-iodo-3-methoxy-1-methyl-1H-pyrazol-4-yl)sulfonyl)piperidin-4-yl)-[1,2,4]triazolo[1,5-a]pyridine], 37 nM.
